Laboratory results: the NIST ThermoML archive (doi:10.1016/j.fluid.2007.10.004)
Numbers after ± are expanded uncertainties.

Conditions: Capillary rise

| Structure (SMILES) | surface tension liquid-gas (298 K) [mN/m] | surface tension liquid-gas (303 K) [mN/m] | surface tension liquid-gas (308 K) [mN/m] | surface tension liquid-gas (313 K) [mN/m] | surface tension liquid-gas (318 K) [mN/m] | surface tension liquid-gas (323 K) [mN/m] | surface tension liquid-gas (328 K) [mN/m] | surface tension liquid-gas (333 K) [mN/m] | surface tension liquid-gas (338 K) [mN/m] | surface tension liquid-gas (343 K) [mN/m] | surface tension liquid-gas (348 K) [mN/m] | surface tension liquid-gas (353 K) [mN/m] | surface tension liquid-gas (358 K) [mN/m] | surface tension liquid-gas (363 K) [mN/m] | surface tension liquid-gas (368 K) [mN/m] | surface tension liquid-gas (373 K) [mN/m] | surface tension liquid-gas (378 K) [mN/m] | surface tension liquid-gas (383 K) [mN/m] | surface tension liquid-gas (388 K) [mN/m] | surface tension liquid-gas (393 K) [mN/m] |
| --- | --- | --- | --- | --- | --- | --- | --- | --- | --- | --- | --- | --- | --- | --- | --- | --- | --- | --- | --- | --- |
| CCCCn1cc[n+](C)c1.[Cl-] [1-butyl-3-methylimidazolium chloride] | 48.2 ± 1.4 | 47.8 ± 1.3 | 47.5 ± 1.3 | 47.2 ± 1.3 | 46.9 ± 1.3 | 46.6 ± 1.3 | 46.3 ± 1.3 | 46 ± 1.3 | 45.6 ± 1.3 | 45.3 ± 1.3 | 45 ± 1.3 | 44.7 ± 1.3 | 44.4 ± 1.3 | 43.9 ± 1.3 | 43.6 ± 1.3 | 43.2 ± 1.2 | 42.9 ± 1.2 | 42.5 ± 1.2 | 42.2 ± 1.2 | 41.8 ± 1.2 |
| CCCCn1cc[n+](C)c1.F[P-](F)(F)(F)(F)F [1-butyl-3-methylimidazolium hexafluorophosphate] | 47.5 ± 1.3 | 47.2 ± 1.3 | 46.9 ± 1.3 | 46.5 ± 1.3 | 46 ± 1.3 | 45.6 ± 1.3 | 45.3 ± 1.3 | 44.9 ± 1.3 | 44.6 ± 1.3 | 44.3 ± 1.3 | 43.8 ± 1.3 | 43.5 ± 1.3 | 43.1 ± 1.2 | 42.8 ± 1.2 | 42.4 ± 1.2 | 42.1 ± 1.2 | 41.7 ± 1.2 | 41.3 ± 1.2 | 41.1 ± 1.2 | 40.8 ± 1.2 |
| CCCCn1cc[n+](C)c1.[I-] [1-butyl-3-methylimidazolium iodide] | 53.3 ± 1.5 | 52.9 ± 1.5 | 52.5 ± 1.5 | 52.1 ± 1.5 | 51.5 ± 1.4 | 51.1 ± 1.4 | 50.7 ± 1.4 | 50.3 ± 1.4 | 49.9 ± 1.4 | 49.4 ± 1.4 | 49 ± 1.4 | 48.6 ± 1.4 | 48.2 ± 1.4 | 47.8 ± 1.4 | 47.4 ± 1.3 | 47.1 ± 1.3 | 46.7 ± 1.3 | 46.3 ± 1.3 | 46 ± 1.3 | 45.6 ± 1.3 |
| CCCCn1cc[n+](C)c1.F[B-](F)(F)F [1-butyl-3-methylimidazolium tetrafluoroborate] | 43.6 ± 1.3 | 43.3 ± 1.2 | 43 ± 1.2 | 42.7 ± 1.2 | 42.3 ± 1.2 | 42 ± 1.2 | 41.8 ± 1.2 | 41.5 ± 1.2 | 41.2 ± 1.2 | 40.9 ± 1.2 | 40.7 ± 1.2 | 40.4 ± 1.2 | 40.2 ± 1.2 | 39.8 ± 1.2 | 39.5 ± 1.2 | 39.2 ± 1.2 | 39 ± 1.2 | 38.8 ± 1.1 | 38.5 ± 1.1 | 38.2 ± 1.1 |
| CCCCCCn1cc[n+](C)c1.[Cl-] [1-hexyl-3-methylimidazolium chloride] | 41.8 ± 1.2 | 41.5 ± 1.2 | 41.2 ± 1.2 | 40.8 ± 1.2 | 40.5 ± 1.2 | 40.2 ± 1.2 | 40 ± 1.2 | 39.8 ± 1.2 | 39.4 ± 1.2 | 39.1 ± 1.2 | 38.8 ± 1.2 | 38.5 ± 1.1 | 38.3 ± 1.1 | 37.9 ± 1.1 | 37.7 ± 1.1 | 37.4 ± 1.1 | 37.1 ± 1.1 | 36.8 ± 1.1 | 36.5 ± 1.1 | 36.2 ± 1.1 |
| CCCCCCn1cc[n+](C)c1.F[P-](F)(F)(F)(F)F [1-hexyl-3-methylimidazolium hexafluorophosphate] | 43.4 ± 1.3 | 43 ± 1.2 | 42.6 ± 1.2 | 42.3 ± 1.2 | 41.9 ± 1.2 | 41.5 ± 1.2 | 41.1 ± 1.2 | 40.8 ± 1.2 | 40.5 ± 1.2 | 40.2 ± 1.2 | 39.8 ± 1.2 | 39.5 ± 1.2 | 39.1 ± 1.2 | 38.8 ± 1.2 |  |  |  |  |  |  |
| CCCCCCn1cc[n+](C)c1.[I-] [1-hexyl-3-methylimidazolium iodide] | 43.5 ± 1.3 | 43.1 ± 1.2 | 42.7 ± 1.2 | 42.3 ± 1.2 | 41.9 ± 1.2 | 41.5 ± 1.2 | 41.1 ± 1.2 | 40.8 ± 1.2 | 40.4 ± 1.2 | 40.1 ± 1.2 | 39.7 ± 1.2 | 39.4 ± 1.2 | 39 ± 1.2 | 38.6 ± 1.1 | 38.3 ± 1.1 | 37.9 ± 1.1 | 37.6 ± 1.1 | 37.2 ± 1.1 | 36.8 ± 1.1 | 36.5 ± 1.1 |
| CCCCCCn1cc[n+](C)c1.F[B-](F)(F)F [1-hexyl-3-methylimidazolium tetrafluoroborate] | 39.2 ± 1.2 | 38.9 ± 1.2 | 38.7 ± 1.1 | 38.4 ± 1.1 | 38.1 ± 1.1 | 37.9 ± 1.1 | 37.7 ± 1.1 | 37.5 ± 1.1 | 37.2 ± 1.1 | 36.9 ± 1.1 | 36.6 ± 1.1 | 36.4 ± 1.1 | 36.2 ± 1.1 | 35.8 ± 1.1 | 35.6 ± 1.1 | 35.4 ± 1.1 | 35.1 ± 1.1 | 34.9 ± 1.1 | 34.6 ± 1.1 | 34.3 ± 1.1 |
| CCCCCCCC[n+]1ccn(C)c1.[Cl-] [1-methyl-3-octylimidazolium chloride] | 31.9 ± 1 | 31.7 ± 1 | 31.5 ± 1 | 31.2 ± 1 | 30.9 ± 1 | 30.6 ± 1 | 30.3 ± 1 | 30 ± 1 | 29.7 ± 1 | 29.5 ± 1 | 29.2 ± 1 | 28.9 ± 0.9 | 28.7 ± 0.9 | 28.4 ± 0.9 | 28.2 ± 0.9 | 27.9 ± 0.9 | 27.6 ± 0.9 | 27.4 ± 0.9 | 27 ± 0.9 | 26.7 ± 0.9 |
| CCCCCCCC[n+]1ccn(C)c1.F[B-](F)(F)F [1-methyl-3-octylimidazolium tetrafluoroborate] | 30.7 ± 1 | 30.4 ± 1 | 30.1 ± 1 | 29.9 ± 1 | 29.6 ± 1 | 29.4 ± 1 | 29.2 ± 1 | 28.9 ± 0.9 | 28.7 ± 0.9 | 28.4 ± 0.9 | 28.2 ± 0.9 | 27.9 ± 0.9 | 27.7 ± 0.9 | 27.4 ± 0.9 | 27.2 ± 0.9 | 27 ± 0.9 | 26.7 ± 0.9 | 26.5 ± 0.9 | 26.3 ± 0.9 | 26 ± 0.9 |
